From US8148373B2, “Compounds” (AstraZeneca AB, priority 2008, dated 2012)

How the values were obtained:
[1] = biological target: T1, human muscarinic acetylcholine M3 receptor (M3-ACh) (Homo sapiens, UniProt P20309); test: Muscarinic 3 Receptor Binding Assay ([3H]NMS competition, SPA); conditions: [3H]NMS 0.1 nM, CHO-K1 cell membranes, 16 hours at room temperature; read-out: M3 pIC50 (converted)
T1 construct: expressed in transfected cells; host or cells: CHO-K1 (Chinese Hamster Ovary) cell membranes
Procedure, shortened: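 Competition SPA binding of 0.1 nM [3H]NMS (quarter Kd) to membranes from CHO-K1 cells expressing human M3, in 20 mM HEPES pH 7.4, 5 mM MgCl2, 1% DMSO. Incubated 16 h at room temperature; non-specific binding with 1 µM atropine. pIC50 from 50% reduction of specific binding.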

[2] = biological target: T2, Adrenergic β2 (H292 cells) (Homo sapiens, UniProt P07550); test: Assay for Adrenergic β2 Mediated cAMP Production (concentration response, AlphaScreen cAMP detection); format: cell-based; conditions: for EC50: cAMP production, 60 minutes at room temperature, 300 μM rolipram, read-out: β2 pEC50 (converted); for β2 Intrinsic activity: fraction relative to the maximum activity determined for formoterol
T2 construct: endogenous in cells; host or cells: H292 cells
Procedure, shortened: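 Intrinsic activity is relative to the per-experiment formoterol maximum, with pEC50 from a four-parameter logistic fit of cAMP levels quantified by AlphaScreen against standards. Cells (H292) got 300 μM rolipram for 10 min, then compound for 60 min at room temperature, 1% DMSO final.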

T2 sequence (P07550 whole entry): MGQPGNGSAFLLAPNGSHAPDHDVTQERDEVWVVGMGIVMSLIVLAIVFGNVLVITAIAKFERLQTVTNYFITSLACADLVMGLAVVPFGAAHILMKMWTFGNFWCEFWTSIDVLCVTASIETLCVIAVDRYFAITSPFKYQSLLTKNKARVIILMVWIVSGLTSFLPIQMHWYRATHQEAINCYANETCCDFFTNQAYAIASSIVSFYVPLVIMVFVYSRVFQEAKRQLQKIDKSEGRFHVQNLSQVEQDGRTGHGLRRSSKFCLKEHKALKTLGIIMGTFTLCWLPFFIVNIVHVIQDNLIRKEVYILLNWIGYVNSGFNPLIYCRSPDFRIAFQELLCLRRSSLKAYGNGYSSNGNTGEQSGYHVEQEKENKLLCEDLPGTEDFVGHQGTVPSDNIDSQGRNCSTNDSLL
T1 sequence (P20309 whole entry): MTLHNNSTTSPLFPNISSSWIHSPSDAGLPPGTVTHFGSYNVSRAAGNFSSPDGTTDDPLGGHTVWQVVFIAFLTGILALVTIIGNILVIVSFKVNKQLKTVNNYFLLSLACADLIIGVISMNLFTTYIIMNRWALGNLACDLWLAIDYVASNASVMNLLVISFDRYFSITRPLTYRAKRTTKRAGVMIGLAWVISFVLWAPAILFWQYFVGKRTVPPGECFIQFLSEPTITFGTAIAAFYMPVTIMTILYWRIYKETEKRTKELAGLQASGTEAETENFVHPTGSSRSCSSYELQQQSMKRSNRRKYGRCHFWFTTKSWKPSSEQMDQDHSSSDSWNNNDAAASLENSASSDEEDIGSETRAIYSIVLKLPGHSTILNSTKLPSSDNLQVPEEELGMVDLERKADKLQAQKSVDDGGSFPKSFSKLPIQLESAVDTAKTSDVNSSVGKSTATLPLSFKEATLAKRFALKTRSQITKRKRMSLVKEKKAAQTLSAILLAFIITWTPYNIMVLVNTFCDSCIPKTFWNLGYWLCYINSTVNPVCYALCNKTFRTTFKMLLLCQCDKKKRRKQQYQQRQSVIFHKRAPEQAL

SMILES | IC50 [1] [nM] | EC50 [2] [nM] | β2 Intrinsic activity [2]
CC(C)(C)c1nc(C(=O)N2CCOC3(CCN(Cc4cc(F)cc(CCNC[C@H](O)c5ccc(O)c6[nH]c(=O)sc56)c4)CC3)C2)cs1 [Example 50, (R)-7-(2-(3-((4-(2-tert-Butylthiazole-4-carbonyl)-1-oxa-4,9-diazaspiro[5.5]undecan-9-yl)methyl)-5-fluorophenethylamino)-1-hydroxyethyl)-4-hydroxybenzo[d]thiazol-2(3H)-one ditrifluoroacetate] | 39.8 | 7.94 | 0.9
CC(C)c1nc(C(=O)N2CC(F)(F)OC3(CCN(Cc4cc(CCNC[C@H](O)c5ccc(O)c6[nH]c(=O)ccc56)cs4)CC3)C2)cs1 [Example 51, (R)-5-(2-(2-(5-((2,2-Difluoro-4-(2-isopropylthiazole-4-carbonyl)-1-oxa-4,9-diazaspiro[5.5]undecan-9-yl)methyl)thiophen-3-yl)ethylamino)-1-hydroxyethyl)-8-hydroxyquinolin-2(1H)-one ditrifluoroacetate] | 15.8 | 3.16 | 0.9
CC(C)c1nc(C(=O)N2CCOC3(CCN(Cc4cc(Cl)cc(CCNC[C@H](O)c5ccc(O)c6[nH]c(=O)sc56)c4)CC3)C2)cs1 [Example 52, (R)-7-(2-(3-Chloro-5-((4-(2-isopropylthiazole-4-carbonyl)-1-oxa-4,9-diazaspiro[5.5]undecan-9-yl)methyl)phenethylamino)-1-hydroxyethyl)-4-hydroxybenzo[d]thiazol-2(3H)-one ditrifluoroacetate] | 7.94 | 5.01 | 0.9
CC(C)c1csc(C(=O)N2CCOC3(CCN(Cc4cc(F)cc(CCNC[C@H](O)c5ccc(O)c6[nH]c(=O)sc56)c4)CC3)C2)n1 [Example 53, (R)-7-(2-(3-Fluoro-5-((4-(4-isopropylthiazole-2-carbonyl)-1-oxa-4,9-diazaspiro[5.5]undecan-9-yl)methyl)phenethylamino)-1-hydroxyethyl)-4-hydroxybenzo[d]thiazol-2(3H)-one ditrifluoroacetate] | 12.6 | 10 | 1
CC(C)c1cnc(C(=O)N2CCOC3(CCN(Cc4cc(F)cc(CCNC[C@H](O)c5ccc(O)c6[nH]c(=O)sc56)c4)CC3)C2)s1 [Example 54, (R)-7-(2-(3-Fluoro-5-((4-(5-isopropylthiazole-2-carbonyl)-1-oxa-4,9-diazaspiro[5.5]undecan-9-yl)methyl)phenethylamino)-1-hydroxyethyl)-4-hydroxybenzo[d]thiazol-2(3H)-one ditrifluoroacetate] | 200 | 6.31 | 0.9
CC(C)c1ncc(C(=O)N2CCOC3(CCN(Cc4cc(F)cc(CCNC[C@H](O)c5ccc(O)c6[nH]c(=O)sc56)c4)CC3)C2)s1 [Example 55, (R)-7-(2-(3-Fluoro-5-((4-(2-isopropylthiazole-5-carbonyl)-1-oxa-4,9-diazaspiro[5.5]undecan-9-yl)methyl)phenethylamino)-1-hydroxyethyl)-4-hydroxybenzo[d]thiazol-2(3H)-one ditrifluoroacetate] | 63.1 | 6.31 | 1
CCCc1nc(C(=O)N2CCOC3(CCN(Cc4cc(F)cc(CCNC[C@H](O)c5ccc(O)c6[nH]c(=O)sc56)c4)CC3)C2)cs1 [Example 56, (R)-7-(2-(3-Fluoro-5-((4-(2-propylthiazole-4-carbonyl)-1-oxa-4,9-diazaspiro[5.5]undecan-9-yl)methyl)phenethylamino)-1-hydroxyethyl)-4-hydroxybenzo[d]thiazol-2(3H)-one ditrifluoroacetate] | 2.51 | 7.94 | 1
